In patent US20090317491A1, “MANUFACTURING METHOD OF MEDICAL STERILIZED ISOTONIC SOLUTION HAVING LOW-CONCENTRATEDLY CONTROLLED FREE CHLORINE INCLUDING HYPOCHLOROUS ACID THEREIN” (priority 2007, published 2009):

Tests used:
[1] = tested on: Corynebacterium amycolatum; conditions: normal temperature; cited from earlier work
Klebsiella pneumoniae = conditions: normal temperature; cited from earlier work
Serratia marcescens = conditions: normal temperature; cited from earlier work
[2] = tested on: Vancomycin-resistent Enterococcus faecium; conditions: normal temperature; cited from earlier work
[3] = inside of a human body / mammal bodies; cited from earlier work
Sterptococcus pyogenes = conditions: normal temperature; cited from earlier work
[4] = tested on: Staphylococcus haemolyticus; conditions: normal temperature; cited from earlier work
Pseudomonas aeruginosa = conditions: normal temperature; cited from earlier work
Staphylococcus hominis = conditions: normal temperature; cited from earlier work
Micrococcus luteus = conditions: normal temperature; cited from earlier work
[5] = tested on: Methicillin-resistent Staphylococcus aureus; conditions: normal temperature; cited from earlier work
Proteus mirabilis = conditions: normal temperature; cited from earlier work
[6] = tested on: Staphylococcus saprophyticus; conditions: normal temperature; cited from earlier work
[7] = tested on: Staphylococcus epidermidis; conditions: normal temperature; cited from earlier work
[8] = mucosa of a nose and eyes; cited from earlier work
[9] = HOCl versus OCl−; cited from earlier work
Haemophilus influenzae = conditions: normal temperature; cited from earlier work
Escherichia coli = conditions: normal temperature; cited from earlier work
Enterobacter aerogenes = conditions: normal temperature; cited from earlier work
Staphylococcus aureus = conditions: normal temperature; cited from earlier work
[10] = Half-life time of HOCl in water / outside the body (FIG. 16); type: physicochemical; conditions: water (medical sterilized normal saline), neutral or subacid, outside of human body
Protocol: Especially, HOCl generated in the medical sterilized normal saline is very unstable in neutral or subacid area, and thus is tend to be reduced to a half only for 3 minutes. Therefore, the free chlorines should be supplied to patients within 3 minutes from manufacturing the medical normal saline. […] Therefore, prompt supply into the body right after manufacturing the medical normal saline can obtain enough time to sterilize or kill germs, fungi, bacteria, the causes of diseases.
FIG. 16 is a graph of the amount of the free chlorine in accordance with the 20 seconds operation time.

Q: What does the source list for `OCl` [HOCl, Hypochlorous acid]?
A: MBC [1]: 0.169 ppm; MBC (Klebsiella pneumoniae): 1.7 ppm; MBC (Serratia marcescens): 0.169 ppm; MBC [2]: 2.73 ppm; half-life time [3]: 44 h; MBC (Sterptococcus pyogenes): 0.169 ppm; MBC [4]: 0.338 ppm; MBC (Pseudomonas aeruginosa): 0.35 ppm; MBC (Staphylococcus hominis): 1.4 ppm; MBC (Micrococcus luteus): 2.77 ppm; MBC [5]: 0.682 ppm; MBC (Proteus mirabilis): 0.340 ppm; MBC [6]: 0.35 ppm; MBC [7]: 0.338 ppm; concentration of HOCl that causes trouble on sensitive parts of human body and stench of the solution [8]: over 6 ppm; sterilizing efficacy relative to OCl− [9]: 80 times; MBC (Haemophilus influenzae): 0.338 ppm; MBC (Escherichia coli): 0.7 ppm; MBC (Enterobacter aerogenes): 0.676 ppm; MBC (Staphylococcus aureus): 0.173 ppm; half-life [10]: 3 min
